From patent US9125835B2, “Synergistic combinations to reduce particle dose for targeted treatment of cancer and its metastases” (priority 2010, dated 2015) come the findings set out here.

One series deals with caspase 3/7. The conditions noted are these: A549 cells, 24 hours; 1 μM paclitaxel alone or with 1 mM R-ALA.
Series [1] can be described thus: In vivo CPT plasma concentrations after single IV injection. The conditions noted are these: IV injection of free CPT (2 mg/kg). As to the method: Values are reported as mean ±SD.
(§1) This was determined by preparing PEGylated 6 μm polystyrene MPs with three copies of the norvaline (Nva) α-amino acid prodrug of CPT. […] Anti-cancer efficacy was evaluated in an orthotopic rat lung cancer model and compared to a bolus injection of CPT.

The next series deals with A549 cell. The experiment in a line: Anti-cancer efficacy in orthotopic rat lung cancer model (A549 cell inoculation). The conditions noted are these: IV every 3 days for 27 days; free CPT 2 mg/kg, CPT-Nva-MPs 0.2 mg/kg CPT. It is filed as in vivo, nude rats. As to the method: as §1
The treatment was conducted every 3 days for 27 days. The day after the last treatment, all animals were euthanized, and organs (lung, heart, […], spleen and […]) were dissected and weighed. The organs were fixed in 10% neutral buffered formalin for H & E staining.

SMILES strings stand for the structures.

Protocol for caspase 3/7: Cell viability (FIG. 11—left) and caspase 3/7 activation (apoptosis) (FIG. 11—right) of A549 cells were evaluated in response to a low dose (˜EC5-EC20) of paclitaxel alone (1 μM), low dose paclitaxel +R-ALA (1 mM) or a solvent control (0.1% DMSO). Cell viability was determined with AlamarBlue® assay. Caspase 3/7 activation was determined as a measure of apoptosis using a fluorometric assay kit (Biovision, Mountain View, Calif.). A549 cells were treated with solvent control (0.1% DMSO), 1 μM paclitaxel, and 1 μM paclitaxel+1 mM R-ALA for 24 hours.

Turning to `CC(=O)O[C@H]1C(=O)[C@@]2(C)[C@H]([C@H](OC(=O)c3ccccc3)[C@]3(O)C[C@H](OC(=O)[C@H](O)[C@@H](NC(=O)c4ccccc4)c4ccccc4)C(C)=C1C3(C)C)[C@]1(OC(C)=O)CO[C@@H]1C[C@@H]2O` [paclitaxel], in the series with caspase 3/7, the “caspase 3/7 activation relative to controls” value is recorded as 1.5 fold.
For the compound `CC[C@@]1(O)C(=O)OCc2c1cc1n(c2=O)Cc2cc3ccccc3nc2-1` [free CPT, camptothecin], in series [1], the “systemic exposure (CPT plasma)” value is recorded as “high but short-lived systemic exposures”. In the series on A549 cell, the “areas of lung cancer versus untreated animals” value is on record as “smaller areas of lung cancer”.
